Experimental findings from patent US11976058B2, “Aromatic derivatives, preparation methods, and medical uses thereof” (Bioardis LLC, priority 2019, dated 2024) are described below.

Like-named read-outs stand apart in the source and are kept apart here.

One test deals with T1, human FGFR4 (Homo sapiens, UniProt P22455).
T1 construct: human FGFR4 cytoplasmic domain (460-802); GST (N); purchased Carna Biosciences 08-136
The experiment in a line: FGFR4 enzymatic assay (HTRF KinEASE-TK). The class given is biochemical. As to conditions: wild-type human FGFR4 cytoplasmic domain (460-802), GST-tag; 60 min preincubation at 25° C.; ATP 200 μM; read-out: Potency (IC50), FGFR4 enzymatic assay. The method, boiled down:
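GST-tagged FGFR4 cytoplasmic domain (460-802) at 0.25 μg/ml, preincubated with compound 60 min at 25 °C in HEPES pH 7.0 buffer, then reacted 40 min at 37 °C with 0.3 μM biotin-TK peptide and 200 μM ATP. HTRF detection (665/612 nm) after 60 min; IC50 by four-parameter logistic fit.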

The test system of the next test is Hep3B cells. The experiment in a line: Cell-based FGFR4 proliferation assay (CellTiter-Glo). As to conditions: incubated with test compound for 3 days, CellTiter-Glo luminescence, read-out: Potency (IC50), Hep3B cell proliferation. On the procedure: Hepatocellular carcinoma cell line Hep3B (ATCC, Cat #HB-8064) were cultured at 37° C., 5% CO2 in ATCC-formulated Eagle's Minimum Essential Medium supplemented with 10% fetal bovine serum; 1% Penicillin-Streptomycin.
(§1) Cell line: Hepatocellular carcinoma cell line Hep3B (ATCC, Cat #HB-8064).
In this assay, Hep3B cells are seeded in 384-well microplates, and after exposure to experimental compounds for […], CellTiter-Glo® Luminescent Cell Viability Assay kit (Promega, Cat #G7572) are used to determine the number of viable cells in the culture based on quantitation of the ATP present, which signals the presence of metabolically active cells. Luminescent signal is proportional to the amount of ATP present. The amount of ATP is directly proportional to the number of cells present in the culture, allowing drug-induced effects on cell proliferation to be measured.
Hep3B cells were plated at a density of 4×10^4/ml cells in a 384-well black/clear microplate with 20 μL per well of MEM Medium (Gibco Cat. #11095-080) supplemented with 10% fetal bovine serum; 1% Penicillin-Streptomycin, and cultured overnight at 37° C., 5% CO2. Various concentrations of the test compound (dissolved in 100% DMSO) were added to the wells of the cell plate. The cells were incubated with the test compound for 3 days at 37° C., 5% CO2. 5 μL of CellTiter-Glo® Reagent was added to each well of the cell plate. The cell plate was incubated for 5 min at 25° C. on a plate shaker (IKA MTS 2/4) at 300 rpm. Luminescence signals were read on a TECAN Spark 10M instrument (TECAN). […] The concentrations and percent inhibition values for a test compound were plotted and the concentration of the compound required to achieve 50% inhibition (IC50) is determined with a four-parameter logistic dose response equation. Dose-response curves were generated using Prism (GraphPad Software, La Jolla, CA, US) to calculate IC50 values for each compound tested.

The subject of test [1] is MAPK phosphorylation in Hep3B cells stimulated with FGF19. The test is described as follows: FGFR4 pMAPK AlphaLISA SureFire Ultra assay. The note with it: serum-starved, compound 1 hour, FGF19 100 ng/ml for 4 hours, read-out: Potency (IC50), FGFR4 pMAPK AlphaLISA. The test is classed as cell-based.
From the text: as §1
In normal liver, circulating FGF19 drives liver cell proliferation and regulates bile acid production. However aberrant expression of FGF19 in the liver drives HCC tumorigenesis, upregulates MAPK phosphorylation in FGF19-amplified malignant liver cells. AlphaScreen SureFire technology allows the detection of phosphorylated proteins in cellular lysates in a highly sensitive, quantitative assay. In these assays, sandwich antibody complexes, which are only formed in the presence of analyte, are captured by AlphaScreen Donor and Acceptor beads, bringing them into close proximity. The excitation of the Donor bead provokes the release of singlet oxygen molecules that triggers a cascade of energy transfer in the Acceptor beads, resulting in the emission of light at 520-620 nm.
Hep3B cells were plated at a density of 1×10^4/ml cells in a 96-well plate (Corning #3599), with 100 uL per well of MEM Medium (Gibco Cat #11095-080) supplemented with 10% fetal bovine serum; 1% Penicillin-Streptomycin, and cultured overnight at 37° C., 5% CO2. Starve Hep3B cells in serum-free medium (SFM) supplemented with 0.2% BSA and incubate the cells again overnight at 37° C., 5% CO2. Various concentrations of the test compound (prepared in 2x SFM) were added to the wells of the cell plate and then incubated for 1 hour at 37° C., 5% CO2. 50 μL of FGF19 in SFM was added to each well of the cell plate with a final FGF19 concentration of 100 ng/ml, and cells treated with FGF19 were stimulated for 4 hours at 37° C., 5% CO2. 5 μL of freshly prepared Donor Mix and Acceptor Mix were sequentially added to the cell plate, each followed with 1 hour of incubation at 25° C., 5% CO2. Read the cell plate on an Alpha Technology-compatible plate reader at 570 nm AlphaScreen, using standard AlphaLISA settings. The percent (%) inhibition=((ZPE−Alpha-Signal)/(ZPE−HPE))*100% where the meanings of HPE and ZPE are as provided below.
HPE: Hundred Percent Effect, negative control well without FGF19 nor compound. Final concentration of DMSO is 0.1%.
ZPE: Zero Percent Effect, positive control well without compound. Final concentration of FGF19 is 100 ng/mL, DMSO is 0.1%.
The concentrations and percent inhibition values for a test compound were plotted and the concentration of the compound required to achieve 50% inhibition (IC50) was determined with a four-parameter logistic dose response equation. Dose-response curves were generated using Prism (GraphPad Software, La Jolla, CA, US) to calculate IC50 values for each compound tested.
A general note: Alpha assays give light when donor and acceptor beads are brought close together.

T1 sequence (P22455 460-802): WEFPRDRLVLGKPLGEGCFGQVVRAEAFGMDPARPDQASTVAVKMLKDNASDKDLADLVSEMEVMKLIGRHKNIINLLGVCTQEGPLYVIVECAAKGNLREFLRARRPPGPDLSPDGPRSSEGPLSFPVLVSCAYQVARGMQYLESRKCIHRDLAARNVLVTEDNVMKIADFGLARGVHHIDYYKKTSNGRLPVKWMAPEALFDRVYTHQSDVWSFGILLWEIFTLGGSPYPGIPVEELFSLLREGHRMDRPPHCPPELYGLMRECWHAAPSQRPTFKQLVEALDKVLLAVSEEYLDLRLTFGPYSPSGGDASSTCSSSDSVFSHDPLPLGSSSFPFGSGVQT

As for `C=CC(=O)Nc1c[nH]nc1-c1n[nH]c2c1CCC(c1cc(OC)cc(OC)c1F)C2` (single isomer, unassigned) [Compound S15-P3, N-(3-(6-(2-fluoro-3,5-dimethoxyphenyl)-4,5,6,7-tetrahydro-1H-indazol-3-yl)-1H-pyrazol-4-yl)acrylamide], the IC50 was 0.01 to 0.1 µM on human FGFR4; 0.01 to 0.1 µM in the test with Hep3B cells (Homo sapiens, Hep3B, 72 h); below 0.01 µM in test [1] (Homo sapiens, Hep3B).
As for `C=CC(=O)Nc1cn(C)nc1-c1n[nH]c2c1CCCC(c1cc(OC)cc(OC)c1F)C2` (single isomer, unassigned) [Compound S12-P4, N-(3-(7-(2-fluoro-3,5-dimethoxyphenyl)-1,4,5,6,7,8-hexahydrocyclohepta[c]pyrazol-3-yl)-1-methyl-1H-pyrazol-4-yl) acrylamide], the IC50 (on human FGFR4; in the test on Hep3B cells; in test [1]) was below 0.01 µM in each case.
As to `C=CC(=O)Nc1cnn(CC)c1-c1n[nH]c2c1CC[C@@H](c1c(F)c(OC)cc(OC)c1F)C2` [Compound S14-P1, (R)—N-(5-(6-(2,6-difluoro-3,5-dimethoxyphenyl)-4,5,6,7-tetrahydro-1H-indazol-3-yl)-1-ethyl-1H-pyrazol-4-yl) acrylamide], the IC50 was 0.01 to 0.1 µM at human FGFR4; above 0.1 µM in the test on Hep3B cells (Homo sapiens, Hep3B, 72 h); 0.01 to 0.1 µM in test [1] (Homo sapiens, Hep3B).
For `C=CC(=O)Nc1cnn(C)c1-c1n[nH]c2c1COC(c1c(F)c(OC)cc(OC)c1F)C2` (single isomer, unassigned) [Compound S6-P2, N-(5-(6-(2,6-difluoro-3,5-dimethoxyphenyl)-1,4,6,7-tetrahydropyrano[4,3-c]pyrazol-3-yl)-1-methyl-1H-pyrazol-4-yl) acrylamide], the IC50 at human FGFR4 was 0.01 to 0.1 µM; in the test with Hep3B cells it was above 0.1 µM; in test [1] (Homo sapiens, Hep3B), 0.01 to 0.1 µM.
On to `C=CC(=O)Nc1cnn(CC)c1-c1n[nH]c2c1CC[C@H](c1c(F)c(OC)cc(OC)c1F)C2` [Compound S14-P2, (S)—N-(5-(6-(2,6-difluoro-3,5-dimethoxyphenyl)-4,5,6,7-tetrahydro-1H-indazol-3-yl)-1-ethyl-1H-pyrazol-4-yl) acrylamide], for which the IC50 on human FGFR4 was below 0.01 µM; in the test on Hep3B cells (Homo sapiens, Hep3B, 72 h), 0.01 to 0.1 µM; in test [1] (Homo sapiens, Hep3B), below 0.01 µM.
Turning to `[2H]C([2H])([2H])Oc1cc(OC([2H])([2H])[2H])c(F)c(C2CCc3c(-c4c(NC(=O)C=C)cnn4C)n[nH]c3C2)c1F` (single isomer, unassigned) [Compound S8-P2, N-(5-(6-(2,6-difluoro-3,5-bis(methoxy-d3)phenyl)-4,5,6,7-tetrahydro-1H-indazol-3-yl)-1-methyl-1H-pyrazol-4-yl) acrylamide], the figures for the IC50 (at human FGFR4; with Hep3B cells; in test [1]) were below 0.01 µM, 0.01 to 0.1 µM and below 0.01 µM, respectively.
For `C=CC(=O)Nc1cn(C)nc1-c1n[nH]c2c1CCCC(c1cc(OC)cc(OC)c1F)C2` (single isomer, unassigned) [Compound S12-P3, N-(3-(7-(2-fluoro-3,5-dimethoxyphenyl)-1,4,5,6,7,8-hexahydrocyclohepta[c]pyrazol-3-yl)-1-methyl-1H-pyrazol-4-yl) acrylamide], the IC50 is 0.01 to 0.1 µM at human FGFR4; 0.01 to 0.1 µM in the test with Hep3B cells (Homo sapiens, Hep3B, 72 h); below 0.01 µM in test [1] (Homo sapiens, Hep3B).
`C=CC(=O)Nc1cn[nH]c1-c1n[nH]c2c1CCC[C@@H](c1c(F)c(OC)cc(OC)c1F)C2` [Compound S11-P2, (R)—N-(5-(7-(2,6-difluoro-3,5-dimethoxyphenyl)-1,4,5,6,7,8-hexahydrocyclohepta[c]pyrazol-3-yl)-1H-pyrazol-4-yl)acrylamide]: the IC50 (at human FGFR4; with Hep3B cells; in test [1]) was below 0.01 µM in each case.
As to `[2H]C([2H])([2H])Oc1cc(OC([2H])([2H])[2H])c(F)c(C2CCc3c(-c4c(NC(=O)C=C)cnn4C)n[nH]c3C2)c1` (single isomer, unassigned) [Compound S8-P3, N-(5-(6-(2-fluoro-3,5-bis(methoxy-d3)phenyl)-4,5,6,7-tetrahydro-1H-indazol-3-yl)-1-methyl-1H-pyrazol-4-yl) acrylamide], the IC50 on human FGFR4 was 0.01 to 0.1 µM; in the test on Hep3B cells (Homo sapiens, Hep3B, 72 h), above 0.1 µM; in test [1] (Homo sapiens, Hep3B), 0.01 to 0.1 µM.
Regarding `[2H]C([2H])([2H])n1ncc(NC(=O)C=C)c1-c1n[nH]c2c1CCC(c1cc(OC)cc(OC)c1F)C2` (single isomer, unassigned) [Compound S16-P4, N-(5-(6-(2-fluoro-3,5-dimethoxyphenyl)-4,5,6,7-tetrahydro-1H-indazol-3-yl)-1-(methyl-d3)-1H-pyrazol-4-yl)acrylamide], the results for the IC50 (on human FGFR4; in the test with Hep3B cells; in test [1]) were 0.01 to 0.1 µM, above 0.1 µM and 0.01 to 0.1 µM, respectively.
Regarding `C=CC(=O)Nc1cnn(C)c1-c1n[nH]c2c1CCC(c1c(F)c(OC)cc(OC)c1F)C2` (single isomer, unassigned) [Compound S1-P1, N-(5-(6-(2,6-difluoro-3,5-dimethoxyphenyl)-4,5,6,7-tetrahydro-1H-indazol-3-yl)-1-methyl-1H-pyrazol-4-yl)acrylamide], the IC50 at human FGFR4 was below 0.01 µM; in the test with Hep3B cells (Homo sapiens, Hep3B, 72 h), 0.01 to 0.1 µM; in test [1] (Homo sapiens, Hep3B), below 0.01 µM.
For `C=CC(=O)Nc1c[nH]nc1-c1n[nH]c2c1CCC(c1c(F)c(OC)cc(OC)c1F)C2` (single isomer, unassigned) [Compound S15-P1, N-(3-(6-(2,6-difluoro-3,5-dimethoxyphenyl)-4,5,6,7-tetrahydro-1H-indazol-3-yl)-1H-pyrazol-4-yl)acrylamide], the IC50 is below 0.01 µM on human FGFR4; below 0.01 µM with Hep3B cells (Homo sapiens, Hep3B, 72 h); below 0.01 µM in test [1] (Homo sapiens, Hep3B).
As to `C=CC(=O)Nc1cn[nH]c1-c1n[nH]c2c1CCCC(c1cc(OC)cc(OC)c1F)C2` (single isomer, unassigned) [Compound S11-P4, N-(5-(7-(2-fluoro-3,5-dimethoxyphenyl)-1,4,5,6,7,8-hexahydrocyclohepta[c]pyrazol-3-yl)-1H-pyrazol-4-yl)acrylamide], the IC50 (on human FGFR4; with Hep3B cells; in test [1]) was below 0.01 µM throughout.
